Laboratory results from PMC9537572, “Elucidation of the binding mechanism of astragaloside IV derivative with human serum albumin and its cardiotoxicity in zebrafish embryos” (Frontiers in Pharmacology, 2022).
Marks after values point to notes of the source that are not given here.

Experiments:
zebrafish = assay: Arachidonic acid-induced thrombosis in zebrafish; assay type: in vivo; conditions: for Staining intensity of cardiac red blood cells (pixels) (mean ± se): 3 h pretreatment, arachidonic acid 1.5 h, n = 10; for Antithrombotic effect (%): vs. model group, arachidonic acid-induced thrombosis
Description: A total of 270 melanin allele mutant translucent albino strain zebrafish at 3 dpf were randomly selected, with 30 zebrafish per well in six-well plates. The concentrations of LS-102 were 6.25, 12.5, 25, 50, and 100 µg/ml, while that of AGS IV was 100 µg/ml, and the positive control drug aspirin was 25 µg/ml. After treatment with LS-102 and AGS IV for 3 h, arachidonic acid aqueous solution was administered for 1.5 h to induce a thrombosis model in zebrafish in all experimental groups except the normal group. After staining with o-anisidine, zebrafish were randomly selected from each experimental group and observed under a dissecting microscope and photographed. Data were collected to qualitatively evaluate thrombosis in zebrafish, and the intensity of cardiac erythrocyte staining (length of venous thrombus vs. number of cardiac erythrocytes) in zebrafish was analyzed and counted to establish, the preventive effect of LS-102 and AGS IV with aspirin on thrombosis in zebrafish. The formula was calculated as follows:
Thromboprophylactic effect (%) = S (drug administration group)−S (model group)/S (nomal control group)−S (model group)×100%

HSA [1] = biological target: T1, HSA (Homo sapiens, UniProt P02768); assay: Plasma protein binding rate by equilibrium dialysis and UHPLC-MS/MS; assay type: in vitro ADME; conditions: human, plasma, equilibrium dialysis 72 h at 4 °C, n = 3, read-out: Protein binding rate (%, Mean±SD) (converted)
Description: The binding rate of AGS IV/LS-102 and HSA was determined using a slightly modified equilibrium dialysis method ([Metsu et al., 2020]). […] The stock solutions of HSA (0.5 ml) and drug group (0.5 ml) were placed in a dialysis membrane bag that was ligated at both ends and then immersed in a test tube filled with 50 ml of PBS solution for 72 h at 4 °C. After equilibrium, a 0.5-ml solution of outer dialysate and internal dialysate was collected into a 2-ml EP tube, and 10 µL IS (digoxin, 0.1 mg/ml) solution was added to each tube. Both samples were added to 1.5 ml of acetonitrile and vortexed for 3 min, and then the samples were separated via centrifugation at 18,000 × g for 20 min. The supernatants were transferred to another EP tube and dried under a nitrogen stream. The residue was redissolved in 1 ml methanol, sonicated for 2 min, vortexed for 3 min, and centrifuged at 18,000 × g for 10 min. The supernatant was filtered with a 0.22 µm microporous syringe filter in a 2 ml sample vial, and 1 µL was injected into the UHPLC-MS/MS system for analysis. The plasma protein binding rate was calculated according to the following formula ([Talbert et al., 2002]): Plasma binding rate=Internal drug concentration−External drug concentration/Initial drug concentration ×100%

HSA [2] = biological target: T1, HSA; assay: Site marker competitive experiments (warfarin, ibuprofen) by equilibrium dialysis; assay type: in vitro ADME; conditions: drug 0.476 mg/ml, n = 3, read-out: Plasma protein binding (converted)
Description: The site marker competitive experiments were performed using two classical site probes, warfarin and ibuprofen, which were selected as the markers of subdomain IIA (site I) and subdomain IIIA (site II) separately of HAS ([Ghuman et al., 2005]). The procedure was consistent with the method described in section 2.5, except that the concentrations of AGS IV and LS-102 were both fixed at 0.476 mg/ml, while the external dialysis solution was changed to contain the probe with a final concentration of 0, 0.06, 0.3, 1.2 mg/ml PBS solution. Briefly, the AGS IV/LS-102 HSA mixture (0.5 ml drug and 0.5 ml HSA) was separately incubated with three different concentrations of probe to evaluate the effects of warfarin or ibuprofen on drug-protein binding influence. Three replicates of each concentration were prepared. After equilibrium dialysis, the internal and external dialysates were analyzed by UHPLC-MS/MS.

zebrafish embryos [3] = assay: Astemizole-induced cardiotoxicity in zebrafish embryos: heart rate and SV-BA spacing; assay type: in vivo; conditions: 4 µM astemizole; for Heart rate (beats/min) (Mean±SE) / SV-BA spacing (µm) (Mean±SE): 250 µg/ml, n = 10
Description: A total of 270 wild-type AB zebrafish at 3 dpf were randomly selected, and 30 zebrafish were plated in each well of a six-well plates. The concentrations of LS-102 were 27.8, 83.3 and 250 µg/ml, AGS IV was 250 µg/mL. A normal control group (fish culture water) and a 4 µM astemizole model control group were also established. Ten zebrafish were randomly selected from each group, and the heart rate and venous sinus-to-arterial bulb distance (SV-BA) of zebrafish were observed under a dissecting microscope after 2 h, 6 h and 24 h of LS-102 and AGS IV treatment. Images were collected by photographing, and the ameliorative effect of LS-102 and AGS IV on astemizole-induced cardiotoxicity in zebrafish was evaluated by the statistical significance of the heart rate and the SV-BA interval index.

zebrafish embryos [4] = assay: Astemizole-induced toxicity in zebrafish heart development; assay type: in vivo; conditions: 250 µg/mL, n=30
Description: A total of 270 wild-type AB zebrafish at 2 h post-fertilization (2 hpf) were randomly selected, and 30 zebrafish were plated in each well of a six-well plates. The concentrations of LS-102 were 27.8, 83.3 and 250 µg/ml, while that of AGS IV was 250 µg/mL. A normal control group (fish culture water) and a 4 µM astemizole model control group were also established. After LS-102 and AGS IV were cotreated with astemizole for 48 h, zebrafish heart development was observed and photographed under a microscope to evaluate the ameliorative effect of LS-102 and AGS IV on astemizole-induced toxicity in zebrafish heart development.

[5] = ref Xu et al., 2016; cited from earlier work

T1 sequence (P02768 25-609): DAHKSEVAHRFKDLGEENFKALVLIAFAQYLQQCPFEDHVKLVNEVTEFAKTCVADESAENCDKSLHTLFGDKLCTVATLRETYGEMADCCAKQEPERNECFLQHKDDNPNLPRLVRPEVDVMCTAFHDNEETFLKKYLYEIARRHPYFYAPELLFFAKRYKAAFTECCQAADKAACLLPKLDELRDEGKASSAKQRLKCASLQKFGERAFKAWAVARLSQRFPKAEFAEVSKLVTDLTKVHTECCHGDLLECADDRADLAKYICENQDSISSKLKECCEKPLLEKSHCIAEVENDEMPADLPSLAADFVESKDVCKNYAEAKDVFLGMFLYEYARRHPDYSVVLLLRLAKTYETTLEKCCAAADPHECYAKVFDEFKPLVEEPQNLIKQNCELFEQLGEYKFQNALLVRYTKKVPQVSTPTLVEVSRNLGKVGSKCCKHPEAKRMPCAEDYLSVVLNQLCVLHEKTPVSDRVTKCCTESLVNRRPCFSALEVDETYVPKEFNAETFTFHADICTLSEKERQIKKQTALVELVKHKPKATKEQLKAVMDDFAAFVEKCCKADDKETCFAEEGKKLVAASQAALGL

CC(=O)Oc1ccccc1C(=O)O [Aspirin, aspirin, reference compound]
Staining intensity of cardiac red blood cells (pixels) (mean ± se) (zebrafish; 25 µg/ml): 2036 ± 92 pixels | Staining intensity of cardiac red blood cells (pixels) (mean ± se) (zebrafish; 25 µg/ml, listed as aspirin): 2036 pixels | Antithrombotic effect (%) (zebrafish; 25 µg/ml): 70^*** % | Antithrombotic effect (%) (zebrafish; 25 µg/ml, listed as aspirin): 70%

CC(C)(O)C1CCC(C)(C2C(O)CC3(C)C4CC(OC5OC(CO)C(O)C(O)C5O)C5C(C)(C)C(OC6OCC(O)C(O)C6O)CCC56CC46CCC23C)O1 [AGS IV, 3-O-β-D-xylopyranosyl-6-O-β-D-glucopyranosyl-cycloastragenol, reference compound]
fraction unbound at 72 h, 0.238 mg/ml (HSA [1]; drug 0.238 mg/ml): 0.0538 | fraction unbound at 72 h, 0.476 mg/ml (HSA [1]; drug 0.476 mg/ml): 0.0258 | fraction unbound at 72 h, 0.714 mg/ml (HSA [1]; drug 0.714 mg/ml): 0.0594 | fraction unbound at 72 h, 0.476 mg/ml (HSA [2]; with ibuprofen 0.06 mg/ml): 0.0718 | fraction unbound at 72 h, 0.476 mg/ml (HSA [2]; with ibuprofen 0.3 mg/ml): 0.0613 | fraction unbound at 72 h, 0.476 mg/ml (HSA [2]; with ibuprofen 1.2 mg/ml): 0.0281 | fraction unbound at 72 h, 0.476 mg/ml (HSA [2]; with warfarin 0.06 mg/ml): 0.051 | fraction unbound at 72 h, 0.476 mg/ml (HSA [2]; with warfarin 0.3 mg/ml): 0.089 | fraction unbound at 72 h, 0.476 mg/ml (HSA [2]; with warfarin 1.2 mg/ml): 0.0781 | fraction unbound at 72 h, 0.476 mg/ml (HSA [2]; without site markers): 0.0333 | Heart rate (beats/min) (Mean±SE) (zebrafish embryos [3]; 2 h): 148 ± 1 beats/min | SV-BA spacing (µm) (Mean±SE) (zebrafish embryos [3]; 2 h): 210 ± 4 µm | Heart rate (beats/min) (Mean±SE) (zebrafish embryos [3]; 6 h): 146 ± 2 beats/min | SV-BA spacing (µm) (Mean±SE) (zebrafish embryos [3]; 6 h): 242 ± 7 µm | Heart rate (beats/min) (Mean±SE) (zebrafish embryos [3]; 24 h): 75 ± 25 beats/min | SV-BA spacing (µm) (Mean±SE) (zebrafish embryos [3]; 24 h): 241 ± 4 µm | Effect on astemizole-induced heart rate slowing and SV-BA spacing increase (in words) (zebrafish embryos [3]; 24 h): no significant changes | Phenotype: cardiac capsular oedema, lack of blood flow (share of zebrafish) (zebrafish embryos [4]; 4 µM astemizole, 48 h): 100% cardiac capsular oedema, lack of blood flow | Mortality (zebrafish embryos [4]; cotreated with 4 µM astemizole 48 h from 2 hpf): 3.3% | Staining intensity of cardiac red blood cells (pixels) (mean ± se) (zebrafish; 100 µg/ml): 1446 ± 54 pixels | Antithrombotic effect (%) (zebrafish; 100 µg/ml): 5% | Degree of protein binding with human plasma [5]: up to 86.69%
